In US5130327A, “Indole derivatives” (Consejo Superior de Investigaciones Cientificas, priority 1989, dated 1992):

Tests used:
Bovine Brain MAO B = target: T1, Bovine Brain MAO B (Bos taurus, UniProt P56560); experiment: In vitro inhibition of MAO from bovine brain mitochondria, tyramine as substrate (form B); format: biochemical; parameters: key to Bovine Brain MAO, mark printed in place of a B value (nonselective): ns = nonselective; conditions: for IC50: pI50 = -log [I50], molar, bovine brain mitochondria, tyramine as substrate; for Bovine Brain MAO, mark printed in place of a B value (nonselective): one pI50 given, no separate A and B values
T1 construct: in vitro activity of MAO from bovine brain mitochondria; from tissue; host or cells: bovine brain mitochondria
T1 sequence (P56560 1-520): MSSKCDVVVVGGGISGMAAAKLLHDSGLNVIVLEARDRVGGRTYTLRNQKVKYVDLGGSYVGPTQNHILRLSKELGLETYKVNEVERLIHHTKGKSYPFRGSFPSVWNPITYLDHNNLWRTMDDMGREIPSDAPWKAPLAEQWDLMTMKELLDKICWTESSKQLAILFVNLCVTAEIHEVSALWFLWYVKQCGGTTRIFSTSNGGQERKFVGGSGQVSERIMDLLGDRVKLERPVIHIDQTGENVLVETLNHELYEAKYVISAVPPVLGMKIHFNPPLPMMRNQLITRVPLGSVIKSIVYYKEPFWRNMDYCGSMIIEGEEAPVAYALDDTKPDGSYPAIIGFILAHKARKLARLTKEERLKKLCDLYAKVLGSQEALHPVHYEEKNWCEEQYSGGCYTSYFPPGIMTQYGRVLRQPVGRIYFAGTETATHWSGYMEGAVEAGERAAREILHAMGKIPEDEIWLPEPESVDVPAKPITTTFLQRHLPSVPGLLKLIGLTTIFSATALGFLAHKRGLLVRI
Description: (§1) The following table illustrates the structure of particular compounds of the invention (1). It also gives specific pI50 values where pI50 =-log [I50 ] where [I50 ] is the molar concentration of test compound which inhibits 50% of the in vitro activity of MAO from bovine brain mitochondria using tyramine as substrate.

Bovine Brain MAO A = target: T2, Bovine Brain MAO A (Bos taurus, UniProt P21398); experiment: In vitro inhibition of MAO from bovine brain mitochondria, tyramine as substrate (form A); format: biochemical; conditions: pI50 = -log [I50], molar
T2 construct: in vitro activity of MAO from bovine brain mitochondria; from tissue; host or cells: bovine brain mitochondria
T2 sequence (P21398 1-527): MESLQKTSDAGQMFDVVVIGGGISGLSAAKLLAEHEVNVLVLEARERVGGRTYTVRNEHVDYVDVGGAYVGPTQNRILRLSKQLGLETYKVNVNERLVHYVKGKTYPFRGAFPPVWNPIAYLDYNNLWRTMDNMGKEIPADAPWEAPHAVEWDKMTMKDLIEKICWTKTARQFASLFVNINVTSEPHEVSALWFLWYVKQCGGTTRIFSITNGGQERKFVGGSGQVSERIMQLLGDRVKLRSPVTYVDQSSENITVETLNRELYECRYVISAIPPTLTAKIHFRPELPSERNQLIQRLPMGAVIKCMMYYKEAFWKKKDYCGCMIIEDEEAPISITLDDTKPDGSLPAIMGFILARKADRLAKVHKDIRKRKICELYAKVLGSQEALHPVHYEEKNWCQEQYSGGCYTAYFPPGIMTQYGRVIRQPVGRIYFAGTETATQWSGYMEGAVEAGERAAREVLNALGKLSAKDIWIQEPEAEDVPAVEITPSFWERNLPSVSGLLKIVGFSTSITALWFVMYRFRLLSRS
Description: as §1

[1] = tested on: cerebral β-adrenergic receptors; experiment: Effects of chronic treatment on β receptors; format: in vivo; conditions: chronic administration in the rat
Experimental: Effects of chronic treatment on α2 -, β- and 5-HT2 receptors. The test compounds, at a dose of 10 mg/kg/day i.p., were administered for 21 days to Wistar male rats (250±2.4 g). After treatment the animals were killed, brains were dissected and cortices were scraped from the dorsal surface of the […]. ^3 H UK 14304, ^3 H Dihydroalprenalol and ^3 H Ketanserin were used as ligands in the binding studies.

[2] = Secondary effects on the cardiovascular system; conditions: in vivo
Experimental: (§2) The secondary effects were studied mainly on the cardiovascular system, and the effects on the arterial pressure, heart rate and rhythm, P-R interval and isolated organ (rabbit aortic rings and isolated atria), were evaluated both after acute and chronic treatments. In the same way, the "cheese effect" was studied by means of the tyramine potentiation.

[3] = Interaction with clonidine-induced hypoactivity; format: in vivo
Description: (§3) The action mechanism was studied in acute and chronic treatments on the interaction response with clonidine, salbutamol (Richard, J. Intern. J. Neuroscience, 9:17-19, 1979) and tetrabenazine (Pletscher, A.: An. N.Y. Aca. Sci. 80:1039-1045, 1959), and the response to the potentiation with L-dopa, L-tryptophan, tryptamine (Jalfre, M. et al., Arch. Int. Pharmacodyn, 159:194-221, 1982) and β-phenylethylamine (Ortmann, et al, Psychopharmacol. 84:22-27, 1984).

[4] = Interaction with salbutamol-induced hypoactivity; format: in vivo
Description: as §3

rat cerebral MAO A and B = experiment: MAO inhibitory activity at the biochemical level (reversibility and selectivity)
Description: To determine MAO inhibitory activity at the biochemical level the following tests are used:
1. "In vitro inhibition" of rat cerebral MAO A and B giving I50 values for the two forms of the enzyme. Male Wistar rats (200 g) were used. Brains were obtained by decapitation and were homogenized. As substrates of the enzymes ^14 C-5-hydroxytryptamine oxalate 54 mCi/mmol and ^14 C-β-phenylethylamine were used. The residual enzymatic activities were referred to the activities in absence of MAO inhibitor (100%).
2. "Ex vivo inhibition" of rat cerebral MAO A and B after single dosing.
This gives the degree of inhibition in vivo of both forms of the enzyme and variation of this inhibition with time after treatment with a single dose. The compounds were administered intraperitoneally to male Wistar rats (175 g.) at a dose of 5 mg/kg in 1 ml/kg (H2 O). Animals were sacrificed by decapitation 24 h. and 7 days after treatment and brains were removed and homogenized. Enzymatic activities determined in treated animals, were compared with the activities in control animals (100%).
3. "Ex vivo" inhibition of rat cerebral MAO A and B after repeated dosing.
Male Wistar rats (175 g) were used.
The compounds were administered once daily intraperitonally for 7 days at a dose of 0.5 and 1 mg/kg in 1 ml/kg […]. […]

[5] = Behavioural Despair (Porsolt's test); format: in vivo; conditions: acute treatment; read-out: Porsolt's test MED, acute
Experimental: The pharmacological profile was carried out assessing the antidepressant activity with the following tests:
Behavioural Despair (Porsolt et al. Arch. Int. Pharmacodyn; 229:327-336, 1977),

[6] = tested on: reuptake of noradrenaline; experiment: Reuptake of noradrenaline in vitro, crude synaptosomal preparation; format: biochemical, rat
Experimental: Influence on the reuptake of monoamines "in vitro" was also studied. The effect of the compounds on the reuptake of 5-HT noradrenaline and dopamine was studied using Wistar male rats (350±2.5 g). They were kept under controlled light and temperature conditions and fed "ad libitum" until killed. The animals were killed by decapitation and brains were frozen and stored at -20° C. prior to analysis. Brains were dissected on an ice-filled petri dish. The cortices for 5-HT and noradrenaline assay and striatum (including caudate nucleus, putamen and globus pallidus) for dopamine assay were immediately weighed and homogenized. The standard incubation medium contained: 1.7 μM ^14 C-5-HT); 0.5μM ^3 H-noradrenaline or 1 μM ^3 H-dopamine with 0.1 ml of the crude synaptosomal preparation. All drugs used in the study were dissolved in the incubation medium in a concentration range 10^-4 to 10^-8 M and were preincubated with the crude synaptosomal preparation obtained from the treated brains, for 5 min. at 37° C. or 0° C. before the addition of the labelled substrate.

Potentiation of 5-HT = format: in vivo; conditions: in vivo
[7] = Potentiation of β-phenylethylamine; format: in vivo; conditions: in vivo
Description: as §3

[8] = "Cheese effect" by tyramine potentiation; conditions: in vivo
Experimental: as §2

rat uterus = conditions: Arch. Int. Pharmacodyn. 1961, 133, 138-158; cited from earlier work

| Compound | IC50 (Bovine Brain MAO B) [nM] | IC50 (Bovine Brain MAO A) [nM] | Bovine Brain MAO, mark printed in place of a B value (nonselective) (Bovine Brain MAO B) | other results |
| --- | --- | --- | --- | --- |
| CC#CCN(CC#CC)Cc1cc2cc(OC)ccc2[nH]1 [(e), N,N-bis(2-butynyl)-2-(5-methoxy-indolyl)methylamine] | > 20000 | ≥ 20000 | – | – |
| C=C=CCN(CC=C=C)Cc1cc2cc(OC)ccc2[nH]1 [(h), N,N-bis(2,3-butadienyl)-2-(5-methoxy-indolyl)methylamine] | – | 447 | ns | – |
| C#CCNCc1cc2cc(OC)ccc2n1C [(j), N-propargyl-2-(1-methyl-5-methoxy-indolyl)methylamine] | 44700 | 20.9 | – | – |
| C#CCN(CC#C)Cc1cc2cc(OC)ccc2n1C [(k), N,N-bis(propargyl)-2-(1-methyl-5-methoxy-indolyl)methylamine] | – | 2820 | ns | – |
| CC#CCNCc1cc2cc(OC)ccc2n1C [(m), N-(2-butynyl)-2-(1-methyl-5-methoxy-indolyl)methylamine] | 79400 | 129 | – | – |
| CC#CCN(CC#CC)Cc1cc2cc(OC)ccc2n1C [(n), N,N-bis(2-butynyl)-2-(1-methyl-5-methoxy-indolyl)methylamine] | > 501000 | 3980 | – | – |
| CC#CCN(C)Cc1cc2cc(OC)ccc2n1C [(o), N-(2-butynyl)-N-methyl-2-(1-methyl-5-methoxy-indolyl)methylamine] | – | 35.5 | ns | – |
| C=C=CCNCc1cc2cc(OC)ccc2n1C [(p), N-(2,3-butadienyl)-2-(1-methyl-5-methoxy-indolyl)methylamine] | 398 | 21.9 | – | – |
| C=C=CCN(CC=C=C)Cc1cc2cc(OC)ccc2n1C [(q), N,N-bis(2,3-butadienyl)-2-(1-methyl-5-methoxy-indolyl)methylamine] | – | 302 | ns | – |
| C=C=CCN(C)Cc1cc2cc(OC)ccc2n1C [(r), N-(2,3-butadienyl)-N-methyl-2-(1-methyl-5-methoxy-indolyl)-methylamine] | 501 | 5.37 | – | – |
| COc1ccc2c(c1)cc(CN)n2C [(u), 2-(1-methyl-5-methoxy-indolyl)methylamine] | – | 18200 | ns | – |
| CNCc1cc2cc(OC)ccc2n1C [(v), N-methyl-2-(1-methyl-5-methoxy-indolyl)methylamine] | – | 129000 | ns | – |

Continued, in another order:

| IC50 (Bovine Brain MAO B) [nM] | IC50 (Bovine Brain MAO A) [nM] | Bovine Brain MAO, mark printed in place of a B value (nonselective) (Bovine Brain MAO B) | Compound | other results |
| --- | --- | --- | --- | --- |
| 110000 | 219 | – | C#CCNCc1cc2cc(OC)ccc2[nH]1 [(a), N-propargyl-2-(5-methoxy-indolyl)methylamine] | – |
| 447 | 7.08 | – | C#CCN(C)Cc1cc2cc(OC)ccc2[nH]1 [(c), N-methyl-N-propargyl-2-(5-methoxy-indolyl)methylamine] | – |
| > 331000 | 631 | – | CC#CCNCc1cc2cc(OC)ccc2[nH]1 [(d), N-(2-butynyl)-2-(5-methoxy-indolyl)methylamine] | – |
| 12900 | 8.91 | – | CC#CCN(C)Cc1cc2cc(OC)ccc2[nH]1 [(f), N-(2-butynyl)-N-methyl-2-(5-methoxy-indolyl)methylamine] | – |
| 2510 | 44.7 | – | C=C=CCNCc1cc2cc(OC)ccc2[nH]1 [(g), N-(2,3-butadienyl)-2-(5-methoxy-indolyl)methylamine] | – |
| 5010 | 17.8 | – | C=C=CCN(C)Cc1cc2cc(OC)ccc2[nH]1 [(i), N-(2,3-butadienyl)-N-methyl-2-(5-methoxy-indolyl)methylamine] | – |
| – | 50100 | ns | COc1ccc2[nH]c(CN)cc2c1 [(s), 2-(5-methoxy-indolyl)methylamine] | Number or affinity of cerebral β-adrenergic receptors [1]: does not modify; Cardiovascular effects [2]: does not produce any significant cardiovascular effects; Clonidine-induced hypoactivity, acute ([3]; acute (10.2 mg/kg)): no action; Clonidine-induced hypoactivity, chronic ([3]; chronic treatment (10.2 mg/kg) during 5 days): no action; Hypoactivity induced by salbutamol, acute ([4]; acute treatment): does not do so; Hypoactivity induced by salbutamol, chronic ([4]; chronic treatment (10.2 mg/kg)): counteracts; Type of MAO inhibition (reversibility, selectivity) (rat cerebral MAO A and B): reversible and mixed inhibitor of MAO; minimal effective dose [5]: 25 mg/kg; Effect on the reuptake of noradrenaline [6]: does not affect; Activity in test of potentiation of 5-HT (Potentiation of 5-HT): inactive; Activity in test of potentiation of β-phenylethylamine [7]: inactive; "Cheese effect" [8]: no "cheese effect" |
| > 100000 | ≥ 100000 | – | CNCc1cc2cc(OC)ccc2[nH]1 [(t), N-methyl-2-(5-methoxy-indolyl)methylamine] | Antagonistic activity on the rat uterus (rat uterus): a weak unspecific antagonistic activity |
